Measurements from patent US11214803B2, “Modulators of YAP1 expression” (Ionis Pharmaceuticals, Inc., priority 2019, dated 2022).
Strand notation (5' to 3'): a small letter for the sugar, then the base; units joined by * are phosphorothioate-linked, units joined directly phosphodiester-linked; [ ] holds rarer units or linkages, { } end groups; capitals alone tell only the bases. k = constrained ethyl (cEt); [5mC] = 5-methylcytosine; d = 2'-deoxy (DNA)

System: Yap1 mRNA
Experiment: Antisense inhibition of human Yap1 in A-431 cells by cEt gapmers, single dose (Example 1, RTS4814)
Type: cell-based
Description: Modified oligonucleotides were designed to target a Yap1 nucleic acid and were tested for their effect on Yap1 mRNA level in vitro. The modified oligonucleotides were tested in a series of experiments that had similar culture conditions. Cultured A-431 cells at a density of 5,000 cells per well were treated using free uptake with 2,000 nM of modified oligonucleotide. After a treatment period of approximately 48 hours, RNA was isolated from the cells and Yap1 mRNA levels were measured by quantitative real-time RTPCR. Human primer probe set RTS4814 (forward sequence […], designated herein as SEQ ID NO.: 11; reverse sequence […], designated herein as SEQ ID NO.: 12; probe sequence […], designated herein as SEQ ID NO.: 13) was used to measure mRNA levels. Yap1 mRNA levels were normalized to total RNA content, as measured by RIBOGREEN®. Results are presented in the tables below as percent control of the amount of Yap1 mRNA relative to untreated control cells (% UTC). The modified oligonucleotides with percent control values marked with an asterisk (*) target the amplicon region of the primer probe set. Additional assays may be used to measure the potency and efficacy of the modified oligonucleotides targeting the amplicon region.
The newly designed modified oligonucleotides in the Tables below were designed as 3-10-3 cEt gapmers. The gapmers are 16 nucleosides in length, wherein the central gap segment comprises of ten 2′-deoxynucleosides and is flanked by wing segments on the 5′ direction and the 3′ direction comprising three nucleosides each. Each nucleoside in the 5′ wing segment and each nucleoside in the 3′ wing segment has a cEt sugar modification. The internucleoside linkages throughout each gapmer are phosphorothioate (P═S) linkages. All cytosine residues throughout each gapmer are 5-methylcytosines.
“Start site” indicates the 5′-most nucleoside to which the gapmer is targeted in the human gene sequence. “Stop site” indicates the 3′-most nucleoside to which the gapmer is targeted human gene sequence. […] Activity of the modified oligonucleotide may be defined in a different experiment.

[1] = Table 1, A-431 cells, free uptake, 2,000 nM, approximately 48 hours, RTS4814, Yap1 mRNA relative to untreated control cells
[2] = A-431 cells, 5,000 cells per well, free uptake, 2,000 nM modified oligonucleotide, approx. 48 hours, RTS4814, normalized to RIBOGREEN, Table 3
[3] = Table 2, A-431 cells, free uptake, 2,000 nM, approximately 48 hours, RTS4814, Yap1 mRNA relative to untreated control cells

Substance	YAP1 (% UTC) [1] [% UTC]	YAP1 (% UTC) [2] [% UTC]	YAP1 (% UTC) [3] [% UTC]
715550 (kA*kG*kG*dA*dA*dG*dT*dT*dG*dT*dT*dG*dA*k[5mC]*k[5mC]*kA; antisense) [Compound 715550]	70	–	–
715433 (antisense kT*kG*kT*dT*d[5mC]*dT*dT*dA*dT*dG*dG*dT*dT*kT*kA*kT) [Compound 715433]	36	–	–
715519 (kT*kT*k[5mC]*d[5mC]*dA*d[5mC]*dT*d[5mC]*dA*dA*dG*dT*dT*kA*k[5mC]*kA; antisense) [Compound 715519]	–	96	–
715541 (k[5mC]*kT*kT*dG*dA*dA*dG*dA*dA*d[5mC]*dT*dA*dT*kT*kT*k[5mC]; antisense) [Compound 715541]	105	–	–
715527 (kT*k[5mC]*kA*d[5mC]*dT*dT*dA*d[5mC]*dT*dT*dT*dA*dA*kG*kA*kA; antisense) [Compound 715527]	–	–	111
715410 (kA*kT*k[5mC]*dA*dG*dT*dA*d[5mC]*dT*dG*dG*d[5mC]*d[5mC]*kT*kG*kT; antisense) [Compound 715410]	–	–	61
715423 (k[5mC]*k[5mC]*kA*dT*dG*dT*dT*dG*dT*dT*dG*dT*d[5mC]*kT*kG*kA; antisense) [Compound 715423]	–	30	–
715624 (antisense kT*kG*k[5mC]*d[5mC]*dT*dA*dA*dG*dA*dG*dT*dA*dA*kA*kA*kA) [Compound 715624]	–	123	–
715618 (antisense kA*kT*kA*dA*dG*dA*d[5mC]*dG*dG*dA*dT*dA*dA*kA*kA*kA) [Compound 715618]	–	101	–
715495 (antisense kA*k[5mC]*kA*dG*dA*dG*dG*dT*dG*d[5mC]*dT*dA*dG*k[5mC]*kT*kG) [Compound 715495]	–	80	–
715438 (antisense kT*kT*k[5mC]*dA*dT*dG*dG*d[5mC]*dA*dA*dA*dA*d[5mC]*kG*kA*kG) [Compound 715438]	–	82	–
715510 (antisense kA*kT*kT*dT*dG*d[5mC]*dT*dG*dT*dG*d[5mC]*dT*dG*kG*kG*kA) [Compound 715510]	–	22	–
715523 (kA*kT*k[5mC]*dA*dG*dT*dA*d[5mC]*dT*dG*dG*d[5mC]*d[5mC]*kT*kA*kT; antisense) [Compound 715523]	32	–	–
715444 (antisense kT*k[5mC]*k[5mC]*d[5mC]*dT*dG*dT*dG*dG*dG*d[5mC]*dT*d[5mC]*kT*kG*kG) [Compound 715444]	–	84	–
715613 (antisense kA*kT*kT*dA*d[5mC]*dT*dT*dT*dA*dA*dG*d[5mC]*d[5mC]*kA*k[5mC]*kA) [Compound 715613]	85	–	–
715557 (kG*kG*kA*dA*dG*dT*dT*dA*dT*dT*d[5mC]*dA*dG*k[5mC]*kA*kG; antisense) [Compound 715557]	–	–	46
715462 (antisense kT*k[5mC]*kT*d[5mC]*dA*dT*d[5mC]*dT*d[5mC]*dG*dA*dG*dA*kG*kT*kG) [Compound 715462]	–	94	–
715536 (kG*kG*k[5mC]*dT*dA*dT*dT*dA*dA*dG*d[5mC]*dT*dG*kT*kT*kT; antisense) [Compound 715536]	–	–	137
715526 (kA*k[5mC]*kT*dT*dA*d[5mC]*dT*dT*dT*dA*dA*dG*dA*kA*kG*kT; antisense) [Compound 715526]	112	–	–
715560 (k[5mC]*k[5mC]*k[5mC]*dT*dT*dT*dA*d[5mC]*dA*dA*dA*dA*dA*kT*kA*kG; antisense) [Compound 715560]	–	–	98
715484 (antisense kT*kA*k[5mC]*dT*d[5mC]*dT*dT*dT*dG*dG*dA*dA*dA*k[5mC]*k[5mC]*kA) [Compound 715484]	123	–	–
715584 (kG*kG*kT*d[5mC]*dT*dG*dG*dA*dA*d[5mC]*dA*dG*dA*kT*kT*kA; antisense) [Compound 715584]	–	–	96
715542 (kT*kA*k[5mC]*dT*dT*dG*dA*dA*dG*dA*dA*d[5mC]*dT*kA*kT*kT; antisense) [Compound 715542]	–	–	120
